Assay results: patent publication US20040002425A1, “Triketone derivatives and herbicides” (Idemitsu Kosan Co., Ltd., priority 1998, published 2004)

Tested on: Transplanted paddy rice plant
Experiment: Biological Test 1 (treatment on the 3rd day after transplantation): chemical injury to paddy rice
Format: in vivo
Parameters: scale not given here
Conditions: Treatment performed 3 days after transplantation
Method: (1) Preparation of Herbicide
Talc (57 parts by weight) and bentonite (40 parts by weight), both serving as carriers, and sodium alkylbenzenesulfate (3 parts by weight) serving as a surfactant were homogeneously ground and mixed to thereby obtain a carrier for water-dispersible powder.
Subsequently, to the water-dispersible powder (90 parts by weight), the triketone derivative (compound No. A-1) produced in Example I-1 (10 parts by weight) was added, and the resultant mixture was homogeneously ground and mixed to thereby obtain a herbicide.
(i) Biological Test 1 (Soaking in Water/Treatment on the 3rd Day After Transplantation)
A Wagner pot (1/2000 are) was filled with paddy soil, and seeds of barnyard grass were planted on the surface layer of the soil, and further, rice seedlings grown to the 2.5-leaf stage were transplanted.
Subsequently, water was poured in the pot to a height of 3 cm above the soil surface, and placed in a greenhouse where the temperature was maintained at 20-25° C., to thereby grow the plant under suitable conditions.
On the 3rd day after transplantation, the herbicide prepared in (1) above was applied to the plant in a predetermined amount. On the 30th day after treatment with the herbicide, weed-killing ratio, herbicidal effect, and extent of chemical injury to paddy rice were examined.
In Biological tests 1 and 2, herbicidal effect and extent of chemical injury were evaluated according to the below-described standards.
3) Chemical Injury to Paddy Rice
Chemical injury to paddy rice was evaluated according to the following criteria.

Row | Compound | Chemical injury, Transplanted paddy rice plant (dose 100 g/ha) | Chemical injury, Transplanted paddy rice plant (dose 200 g/ha)
1 | Cc1ccc(SC2=C(C(=O)c3ccc4c(c3Cl)CCS4(=O)=O)C(=O)CCC2)cc1 [B-14, 4-chloro-5-[3-(4-methylphenyl)thio-1-oxocyclohexan-2-yl]carbonyl-2,3-dihydrobenzothiophene-1,1-dioxide] | 0 | 0
2 | Cc1cccc(SC2=C(C(=O)c3ccc4c(c3Cl)CCS4(=O)=O)C(=O)CCC2)c1 [B-15, 4-chloro-5-[3-(3-methylphenyl)thio-1-oxocyclohexan-2-yl]carbonyl-2,3-dihydrobenzothiophene-1,1-dioxide] | 0 | 0
3 | Cc1ccccc1SC1=C(C(=O)c2ccc3c(c2Cl)CCS3(=O)=O)C(=O)CCC1 [B-16] | 0 | 0
4 | O=C1CCCC(Sc2ccccc2Cl)=C1C(=O)c1ccc2c(c1Cl)CCS2(=O)=O [B-17] | 0 | 0
5 | CC(C)c1ccccc1SC1=C(C(=O)c2ccc3c(c2Cl)CCS3(=O)=O)C(=O)CCC1 [B-18] | 0 | 0
6 | COC(=O)c1ccccc1SC1=C(C(=O)c2ccc3c(c2Cl)CCS3(=O)=O)C(=O)CCC1 [B-19] | 0 | 0
7 | COc1ccc(SC2=C(C(=O)c3ccc4c(c3Cl)CCS4(=O)=O)C(=O)CCC2)cc1 [B-20] | 0 | 0
8 | O=C1CCCC(Sc2ccc(Br)cc2)=C1C(=O)c1ccc2c(c1Cl)CCS2(=O)=O [B-21] | 0 | 0
9 | C=CCSC1=C(C(=O)c2ccc3c(c2Cl)CCS3(=O)=O)C(=O)CCC1 [B-22, 4-chloro-5-[3-(3-propenyl)thio-1-oxocyclohexan-2-yl]carbonyl-2,3-dihydrobenzothiophene-1,1-dioxide] | 0 | 0
10 | CC(C)(C)SC1=C(C(=O)c2ccc3c(c2Cl)CCS3(=O)=O)C(=O)CCC1 [B-23] | 0 | 0
11 | CS(=O)(=O)C1=C(C(=O)c2ccc3c(c2Cl)CCS3(=O)=O)C(=O)CCC1 [B-24] | 0 | 0
12 | CC1CC(=O)C(C(=O)c2ccc3c(c2Cl)CCS3(=O)=O)=C(Cl)C1 (stereo not drawn) [B-25] | 0 | 1
13 | CC1CC(=O)C(C(=O)c2ccc3c(c2Cl)CCS3(=O)=O)=C(Sc2ccccc2)C1 (stereo not drawn) [B-26] | 0 | 0
14 | CCS(=O)(=O)C1=C(C(=O)c2ccc3c(c2Cl)CCS3(=O)=O)C(=O)CCC1 [B-27] | 0 | 0
15 | CCCS(=O)(=O)C1=C(C(=O)c2ccc3c(c2Cl)CCS3(=O)=O)C(=O)CCC1 [B-28] | 0 | 0
16 | CC(C)S(=O)(=O)C1=C(C(=O)c2ccc3c(c2Cl)CCS3(=O)=O)C(=O)CCC1 [B-29] | 0 | 0
17 | CCCCS(=O)(=O)C1=C(C(=O)c2ccc3c(c2Cl)CCS3(=O)=O)C(=O)CCC1 [B-30] | 0 | 0
18 | O=C1CCCC(S(=O)(=O)c2ccccc2)=C1C(=O)c1ccc2c(c1Cl)CCS2(=O)=O [B-31] | 0 | 0
19 | Cc1ccccc1S(=O)(=O)C1=C(C(=O)c2ccc3c(c2Cl)CCS3(=O)=O)C(=O)CCC1 [B-32] | 0 | 0
20 | Cc1cccc(S(=O)(=O)C2=C(C(=O)c3ccc4c(c3Cl)CCS4(=O)=O)C(=O)CCC2)c1 [B-33] | 0 | 0
21 | Cc1ccc(S(=O)(=O)C2=C(C(=O)c3ccc4c(c3Cl)CCS4(=O)=O)C(=O)CCC2)cc1 [B-34] | 0 | 0

Row | Compound | Chemical injury, Transplanted paddy rice plant (dose 100 g/ha) | Chemical injury, Transplanted paddy rice plant (dose 200 g/ha)
22 | O=C1CCCC(S(=O)(=O)c2ccccc2Cl)=C1C(=O)c1ccc2c(c1Cl)CCS2(=O)=O [B-35] | 0 | 0
23 | CC(C)c1ccccc1S(=O)(=O)C1=C(C(=O)c2ccc3c(c2Cl)CCS3(=O)=O)C(=O)CCC1 [B-36] | 0 | 0
24 | COc1ccc(S(=O)(=O)C2=C(C(=O)c3ccc4c(c3Cl)CCS4(=O)=O)C(=O)CCC2)cc1 [B-37] | 0 | 0
25 | C=CCS(=O)(=O)C1=C(C(=O)c2ccc3c(c2Cl)CCS3(=O)=O)C(=O)CCC1 [B-38, 4-chloro-5-[3-(3-propenyl)sulfonyl-1-oxocyclohexan-2-yl]carbonyl-2,3-dihydrobenzothiophene-1,1-dioxide] | 0 | 0
26 | CC(C)(C)S(=O)(=O)C1=C(C(=O)c2ccc3c(c2Cl)CCS3(=O)=O)C(=O)CCC1 [B-39] | 0 | 0
27 | O=C1CCCC(S(=O)(=O)Cc2ccccc2)=C1C(=O)c1ccc2c(c1Cl)CCS2(=O)=O [B-40] | 0 | 0
28 | O=C1CCCC(S(=O)(=O)c2ccc(Br)cc2)=C1C(=O)c1ccc2c(c1Cl)CCS2(=O)=O [B-42] | 0 | 0
29 | O=C1CCCC(S(=O)(=O)c2ccc(O)cc2)=C1C(=O)c1ccc2c(c1Cl)CCS2(=O)=O [B-43] | 0 | 0
30 | COC(=O)c1ccccc1S(=O)(=O)C1=C(C(=O)c2ccc3c(c2Cl)CCS3(=O)=O)C(=O)CCC1 [B-44] | 0 | 0
31 | CC(=O)c1ccc(SC2=C(C(=O)c3ccc4c(c3Cl)CCS4(=O)=O)C(=O)CCC2)cc1 [B-45, 4-chloro-5-[3-(4-acetylphenyl)thio-1-oxocyclohexan-2-yl]carbonyl-2,3-dihydrobenzothiophene-1,1-dioxide] | 0 | 0
32 | CC(=O)c1ccc(S(=O)(=O)C2=C(C(=O)c3ccc4c(c3Cl)CCS4(=O)=O)C(=O)CCC2)cc1 [B-46] | 0 | 0
33 | Cc1c(C(=O)C2=C(Cl)CCCC2=O)ccc2c1CCS2(=O)=O [B-47] | 0 | 0
34 | O=C1CCCC(Sc2ccccc2O)=C1C(=O)c1ccc2c(c1Cl)CCS2(=O)=O [B-48] | 0 | 0
35 | O=C1CCCC(S(=O)(=O)c2ccccc2O)=C1C(=O)c1ccc2c(c1Cl)CCS2(=O)=O [B-49] | 0 | 0
36 | COCCOC1=C(C(=O)c2ccc3c(c2Cl)CCS3(=O)=O)C(=O)CCC1 [B-53] | 0 | 0
37 | CO/N=C1\CCS(=O)(=O)c2c(C)cc(C(=O)C3=C(Cl)CCCC3=O)c(C)c21 [B-54] | 1 | 4
38 | CO/N=C1\CCS(=O)(=O)c2c(C)cc(C(=O)C3=C(N(C)C)CCCC3=O)c(C)c21 [B-55, 4-methoxyimino-5,8-dimethyl-6-(3-dimethylamino-1-oxocyclohexan-2-yl)carbonylthiochroman-1,1-1,1-dioxide] | 0 | 0
39 | CO/N=C1\CCS(=O)(=O)c2c(C)cc(C(=O)C3=C(N(C)OC)CCCC3=O)c(C)c21 [B-57, 4-methoxyimino-5,8-dimethyl-6-[3-(N-methoxymethyl)amino-1-oxocyclohexan-2-yl]carbonylthiochroman-1,1-1,1-dioxide] | 0 | 3
40 | CO/N=C1\CCS(=O)(=O)c2c(C)cc(C(=O)C3=C(Nc4ccc(C)cc4)CCCC3=O)c(C)c21 [B-58, 4-methoxyimino-5,8-dimethyl-6-[3-(4-methylphenyl)amino-1-oxocyclohexan-2-yl]carbonylthiochroman-1,1-1,1-dioxide] | 0 | 0
41 | CO/N=C1\CCS(=O)(=O)c2c(C)cc(C(=O)C3=C(Sc4ccc(C)cc4)CCCC3=O)c(C)c21 [B-59, 4-methoxyimino-5,8-dimethyl-6-[3-(4-methylphenyl)thio-1-oxocyclohexan-2-yl]carbonylthiochroman-1,1-1,1-dioxide] | 0 | 0
42 | CO/N=C1\CCS(=O)(=O)c2c(C)cc(C(=O)C3=C(S(=O)(=O)c4ccc(C)cc4)CCCC3=O)c(C)c21 [B-60, 4-methoxyimino-5,8-dimethyl-6-[3-(4-methylphenyl)sulfonyl-1-oxocyclohexan-2-yl]carbonylthiochroman-1,1-1,1-dioxide] | 0 | 0
